Data on three compounds can be found in paper PMC10257291, “Biological activities of extracts and compounds from Thai Kae-Lae (Maclura cochinchinensis (Lour.) Corner)” (BMC Complementary Medicine and Therapies, 2023).

In one data set the test system is WT1 protein. Also noted: method as in PMID 29274817. The note with it: compounds from Mah-Lueang; cited from earlier work.

Experimental for red blood cells: The whole blood samples were obtained from normal volunteers. Red blood cells were separated by centrifugation and washed 2 times with 0.9% NaCl. Then, 2% RBC suspension was incubated with crude fractional extracts and compounds at 37 °C for 30 min. Triton-X 100 (2%) and NaCl (0.9%) were positive and negative controls, respectively. Then, the supernatant was collected, and haemoglobin concentration was measured by spectrophotometry at 540 nm. The haemolysis induction was calculated using the following equation:5 %Haemolysisinduction=Absorbance of sample/Absorbance of positive contr×100

For `CC(C)=C1C[C@@H]2O[C@@]2(C)CC/C=C(\C)CC1=O` [Germacrone-4,5-epoxide], in the data set with WT1 protein, the “decrease of WT1 protein in KG-1a cells” value is 92.22%. With `CC(C)=C1C[C@H]2[C@@H](CC[C@]2(C)O)[C@](C)(O)CC1=O` [zedoarondiol], the “decrease of WT1 protein in KG-1a cells” value in the data set on WT1 protein was 95.52%. Consider Triton X100 [0.05% Triton X100], for which the “Haemolysis (%)” value with red blood cells was found to be 100%.
